Results taken from PubChem BioAssay (NCI).
Where “and” joins values, the source holds several entries; their conditions need not be identical. Identical values can stand only once.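 Following 48 hours of exposure in 96-well plates, responses at five concentrations were used to interpolate endpoints linearly. GI50: concentration for 50% inhibition of growth. TGI marks complete inhibition of growth.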

Assays:
Experiment in all cases: inhibition of tumour cell growth, NCI panel, 48 h
XF 498 CNS = system: XF 498 CNS
DMS 273 small cell lung = system: DMS 273 small cell lung
KM20L2 colon = system: KM20L2 colon
M19-MEL melanoma = system: M19-MEL melanoma
DLD-1 colon = system: DLD-1 colon
HOP-18 NSCLC = system: HOP-18 NSCLC
SNB-78 CNS = system: SNB-78 CNS
RXF-631 renal = system: RXF-631 renal
MDA-N = system: MDA-N

Compound | TGI (XF 498 CNS) [µM] | TGI (DMS 273 small cell lung) | TGI (KM20L2 colon) | TGI (M19-MEL melanoma) | TGI (DLD-1 colon) | TGI (HOP-18 NSCLC) | TGI (SNB-78 CNS) [µM] | TGI (RXF-631 renal) [µM] | TGI (MDA-N) [µM] | other results
CC(=O)OCC1OC(OC2CC3C(C)(C)C(O)CC[C@]3(C)C3CCC45CC4(CC[C@H]5C(C)CC(O)C4OC4(C)C)[C@]23C)C(O)C(O)C1O (some centres undefined) | 14.3 | 15.1 µM and 15.7 µM | 15.6 µM and 24.2 µM | 10.6 µM and 12.6 µM | 14.9 µM and 28.8 µM | 13.6 µM and 17.5 µM |  |  |  | GI50 (DMS 273 small cell lung): 4.44 µM; GI50 (KM20L2 colon): 11.9 µM; GI50 (M19-MEL melanoma): 3.7 µM; GI50 (DLD-1 colon): 14 µM; GI50 (HOP-18 NSCLC): 5.27 µM
O=C(C(=O)N1CC2C=CC1CC2)c1c[nH]c2ccccc12 (centres undefined) |  | > 100 µM | > 100 µM | > 100 µM | > 100 µM | > 100 µM | > 100 | > 100 |  | 
C1OC1CO[C@@H]1CO[C@H]2[C@@H]1OC[C@H]2OCC1CO1 (some centres undefined) | > 100 | > 100 µM | > 100 µM | > 100 µM | > 100 µM | > 100 µM | > 100 |  |  | 
Cc1ccc(SC2=CC(=O)c3nc4ccccc4c4ccnc2c34)cc1 |  |  |  |  |  |  |  |  | > 75 | GI50 (MDA-N): 28.8 µM
O=C(O)c1cc(N=Cc2ccccc2O)cc(C(=O)O)c1 |  |  |  |  |  |  |  |  | > 100 | 
COC(=O)C1(F)C(=O)NC(=O)NC1O (centres undefined) |  |  |  |  |  |  |  |  | > 100 | 
O=C1c2c(n(Cc3ccccc3)c(=O)n2Cc2ccccc2)C(=O)N1Cc1ccccc1 | 98.5 | > 100 µM | > 100 µM | > 100 µM | > 100 µM | > 100 µM | > 100 | > 100 |  | 
CCN(CCCl)CCCNc1c2ccccc2nc2ccc(OC)cc12 |  |  | 2.2 µM |  |  |  |  |  |  | GI50 (SNB-78 CNS): 585 µM; GI50 (XF 498 CNS): 381 µM; GI50 (DMS 273 small cell lung): 177 µM; GI50 (M19-MEL melanoma): 323 µM; GI50 (DLD-1 colon): 174 µM
c1ccc2c(c1)[nH]c1cnc3c4cccnc4[nH]c3c12 |  |  |  | 31.5 µM | 33.5 µM | 36.7 µM | 46.6 |  |  | 
COc1cc(/C=C2\CCC(CN(C)C)C2=O)ccc1OC(=O)c1ccccc1 (centres undefined) | 34.6 | 27.4 µM | 30.3 µM | 24.7 µM | 16.1 µM | 30.9 µM | 39.9 | 23.6 | 29.6 | 
CC#CC1/C(=C\C(=O)OC)CCCC1O (centres undefined) | > 100 | > 100 µM |  | > 100 µM | > 100 µM |  | > 100 |  |  | 
CCCCOC(=O)NC(=O)c1cn(CCSCCOC(=O)NCCCCCCNC(=O)OCCSCCn2cc(C(=O)NC(=O)OCCCC)c(=O)[nH]c2=O)c(=O)[nH]c1=O |  | > 100 µM | > 100 µM | > 100 µM | > 100 µM | > 100 µM | > 100 | > 100 |  | 
C/C(=N\N=C(/[Se])N1CC2CCC(CC2)C1)c1ccccn1 | 0.0981 | 1.79 µM | 0.682 µM | 0.559 µM | 1.96 µM | 1.98 µM | 2.88 | 3.88 | 2.6 | 
CCOC(=O)C1SC(=Nc2ccc(Cl)c(Cl)c2)N=C1C (centres undefined) | > 100 | > 100 µM | 78.8 µM | > 100 µM | > 100 µM | > 100 µM |  | > 100 |  | 
CC(=O)CCCCO | > 100 | > 100 µM |  | > 100 µM |  |  | > 100 |  |  | 
CCOC(=O)C(=Cc1ccc(C(=O)OC)cc1)C(=O)OCC |  | 3.9 µM | 14.1 µM | 10.2 µM | 4.46 µM | 10.7 µM |  |  |  | 
CN1CC(C(=O)C2C(=O)c3ccccc3C2=O)C(=O)C(=O)C(C(=O)C2C(=O)c3ccccc3C2=O)C1 (centres undefined) | > 100 | > 100 µM |  |  | > 100 µM |  |  | > 100 |  | 
COc1cccc(/C=C/c2cnc3ccccc3n2)c1OC |  |  |  |  |  |  |  |  | > 100 | 

Compound | TGI (XF 498 CNS) [µM] | TGI (DMS 273 small cell lung) | TGI (KM20L2 colon) | TGI (M19-MEL melanoma) | TGI (DLD-1 colon) | TGI (HOP-18 NSCLC) | TGI (SNB-78 CNS) [µM] | TGI (RXF-631 renal) [µM] | TGI (MDA-N) [µM] | other results
CC(=O)OC1CC2(O)C3CCC4CC(O)CCC4(C)C3CCC2(C)C1C1=CC(=O)OC1 (centres undefined) |  |  |  |  |  |  |  |  | 0.317 | 
COc1cc2c[n+](C)c3c4ccccc4ccc3c2cc1OC (tested in a mixture with another compound) | 17.7 | 15.7 µM | 37.9 µM | 15.4 µM | > 100 µM | 76.8 µM |  | > 66.1 | 20.5 | 
NC(=O)C(c1ccccc1)N1CCOCC1 (centres undefined) |  | > 100 µM | > 100 µM | > 100 µM | > 100 µM | > 100 µM | > 100 |  |  | 
Cc1cc(NS(=O)(=O)c2ccc(NC(=O)c3cccc4c(Nc5ccc(S(=O)(=O)N=C(N)N)cc5)c5ccccc5nc34)cc2)no1 |  | > 100 µM | > 100 µM |  | > 100 µM |  | > 100 | > 100 |  | 
COc1ccc(/C=C\c2cc(OC)c(OC)c(OC)c2)cc1OC(=O)CCC(=O)O |  |  |  |  |  |  |  |  | > 100 | 
CC(C)(C)C(=O)ON1N=NC2C3CC(OCc4ccccc4)(OCc4ccccc4)C(O3)C21 (centres undefined) | 33.5 | 51.2 µM | 77.5 µM | 30 µM | 44.6 µM | 94.2 µM | > 100 | 82.1 |  | 
O=C1CN(C(=O)c2ccccc2)Cc2[nH]c3ccccc3c21 | > 100 | > 100 µM | > 100 µM | > 100 µM | > 100 µM | > 100 µM | > 100 | > 100 |  | 
Cc1ccc2c(c1)NC(=O)CC(c1ccccc1)=N2 |  |  |  |  |  |  |  |  | 60.7 | 
COc1ccc(/C=C/C(=O)Oc2cc(O)cc(O)c2)cc1 |  |  |  |  |  |  |  |  | > 100 | 
Fc1ccc(C2SCc3nc4ccccc4n32)cc1 (centres undefined) | > 100 |  |  | > 100 µM | > 100 µM |  | > 100 |  |  | 
COc1ccccc1NC(=O)C1=C(C)NC(C)=C(C(=O)Nc2ccccc2OC)C1c1ccc(C)cc1 | > 100 | > 100 µM | > 100 µM | > 100 µM |  | > 100 µM | > 100 |  |  | 
CCN(c1ccc(Br)cc1)c1c(Br)c(=O)nc2ccccn12 | > 100 | > 100 µM | > 100 µM | > 100 µM | > 100 µM |  | > 100 | > 100 |  | 
O=C1C(=O)N(c2ccc(Cl)cc2Cl)C(=O)C(=O)C1c1nc2ccccc2o1 | > 100 | > 100 µM | > 100 µM | > 100 µM | > 100 µM | > 100 µM | > 100 | > 100 |  | 
CC(=O)OC1(C)C(=O)OC1(C)C(C)=O (centres undefined) |  | > 100 µM | > 100 µM | > 100 µM | > 100 µM | > 100 µM | > 100 | > 100 |  | 
O=C(CC(=O)N1N=C(N2c3ccccc3Sc3ccccc32)CC1c1ccccc1)Nc1ccc(Cl)cc1 (centres undefined) | > 100 | > 100 µM | > 100 µM | > 100 µM | > 100 µM | > 100 µM | > 100 |  |  | 
NC(N)=NNC(=O)CCCCCCCC(=O)NN=C(N)N |  | > 100 µM | > 100 µM | > 100 µM | > 100 µM |  | > 100 | > 100 |  | 
O=C(OCC1CO1)c1cccs1 (centres undefined) | > 100 | > 100 µM | > 100 µM | > 100 µM | > 100 µM |  | > 100 | > 100 |  | 
